Measured values reported in ChEMBL document CHEMBL1201862, “PubChem BioAssay data set” (2004).
Calls of active or inactive are those of the source.

Assays:
Jurkat = experiment: antigen receptor-induced NF-kB inhibitors, dose response, Jurkat, luciferase reporter, luminescence, B- and T-cell (AID 489004); type: functional, cell-based; conditions: Homo sapiens;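 further: NF-kB luciferase reporter Jurkat cells stimulated with PMA plus ionomycin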
[1] = cytotoxicity in HEK-293T NF-kB-Luc cells, dose response, cytotoxicity control for B/T-cell NF-kB inhibitor project, cell-based, uHTS hits (AID 489019); type: functional;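 further: IC50 reflects cytotoxicity as loss of cell viability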
[2] = target: T1, Microphthalmia-associated transcription factor (Homo sapiens, UniProt O75030); experiment: TRPM1 promoter luciferase signal decrease, dose response, MITF inhibitor project, cell-based, SK-MEL-5, cherry-picked, set 3 (AID 493073); type: functional
T1 sequence (O75030 whole entry): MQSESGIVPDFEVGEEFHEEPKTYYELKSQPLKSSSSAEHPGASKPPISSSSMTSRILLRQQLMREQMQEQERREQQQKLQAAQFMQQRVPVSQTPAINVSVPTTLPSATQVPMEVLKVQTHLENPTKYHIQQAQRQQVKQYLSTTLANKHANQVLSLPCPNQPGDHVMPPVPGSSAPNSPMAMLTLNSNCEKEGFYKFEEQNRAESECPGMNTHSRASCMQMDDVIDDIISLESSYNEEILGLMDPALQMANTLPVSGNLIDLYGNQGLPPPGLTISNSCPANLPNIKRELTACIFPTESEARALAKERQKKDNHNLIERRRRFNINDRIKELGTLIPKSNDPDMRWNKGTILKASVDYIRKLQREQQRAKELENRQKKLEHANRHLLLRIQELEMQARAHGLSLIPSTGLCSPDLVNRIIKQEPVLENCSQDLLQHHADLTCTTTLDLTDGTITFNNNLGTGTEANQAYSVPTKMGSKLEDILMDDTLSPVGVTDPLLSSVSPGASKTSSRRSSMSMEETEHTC

Candida albicans = experiment: reversal of fluconazole resistance in C. albicans, dose response, CaCi-2 strain, Alamar Blue, dry powder, set 3 (AID 488907); type: functional, organism-based
[3] = target: Nucleotide-binding oligomerization domain-containing protein 2 (Homo sapiens, UniProt Q9HC29); experiment: NOD2 signaling inhibitors, cell-based, luminescence, uHTS, HEK293 (AID 1566); type: functional
Chain of Nucleotide-binding oligomerization domain-containing protein 2 (Q9HC29 whole entry, the tested form may be a part): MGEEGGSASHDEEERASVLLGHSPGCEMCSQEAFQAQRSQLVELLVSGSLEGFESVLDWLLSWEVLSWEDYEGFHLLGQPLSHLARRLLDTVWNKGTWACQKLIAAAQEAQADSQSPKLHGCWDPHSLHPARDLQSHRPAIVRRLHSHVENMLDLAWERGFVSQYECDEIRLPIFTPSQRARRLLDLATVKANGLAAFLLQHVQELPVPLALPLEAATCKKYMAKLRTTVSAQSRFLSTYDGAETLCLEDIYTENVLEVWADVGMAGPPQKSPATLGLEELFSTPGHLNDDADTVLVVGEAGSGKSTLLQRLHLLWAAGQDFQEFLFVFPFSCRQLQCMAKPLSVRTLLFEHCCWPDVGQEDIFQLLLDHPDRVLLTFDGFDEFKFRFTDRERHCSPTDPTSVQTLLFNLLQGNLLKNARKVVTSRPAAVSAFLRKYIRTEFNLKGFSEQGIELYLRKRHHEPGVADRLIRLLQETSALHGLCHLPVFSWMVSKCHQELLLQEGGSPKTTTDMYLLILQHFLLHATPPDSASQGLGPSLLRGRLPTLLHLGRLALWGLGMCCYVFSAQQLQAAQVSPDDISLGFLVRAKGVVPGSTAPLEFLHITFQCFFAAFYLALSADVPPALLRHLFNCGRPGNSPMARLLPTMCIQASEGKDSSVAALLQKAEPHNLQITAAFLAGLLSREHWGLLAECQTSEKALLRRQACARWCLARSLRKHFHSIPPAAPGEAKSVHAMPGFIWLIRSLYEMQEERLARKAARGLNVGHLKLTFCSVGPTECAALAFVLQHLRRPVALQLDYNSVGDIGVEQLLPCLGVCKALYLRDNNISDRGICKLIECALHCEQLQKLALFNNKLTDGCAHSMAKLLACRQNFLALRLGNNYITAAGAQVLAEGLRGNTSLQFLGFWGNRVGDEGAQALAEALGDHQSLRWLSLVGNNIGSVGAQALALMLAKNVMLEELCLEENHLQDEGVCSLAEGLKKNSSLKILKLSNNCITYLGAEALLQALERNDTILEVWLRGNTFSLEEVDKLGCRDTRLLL

Vero = experiment: cells; type: functional; conditions: Chlorocebus sabaeus
HEK293 [4] = experiment: cells; type: functional, cell-based; conditions: Homo sapiens
[5] = target: T2, Neuropeptide Y receptor type 1 (Homo sapiens, UniProt P25929); experiment: Fluorescence-based counterscreen for agonists of NPY-Y2: cell-based high-throughput dose response assay for agonists of NPY-Y1.; type: functional
T2 sequence (P25929 whole entry): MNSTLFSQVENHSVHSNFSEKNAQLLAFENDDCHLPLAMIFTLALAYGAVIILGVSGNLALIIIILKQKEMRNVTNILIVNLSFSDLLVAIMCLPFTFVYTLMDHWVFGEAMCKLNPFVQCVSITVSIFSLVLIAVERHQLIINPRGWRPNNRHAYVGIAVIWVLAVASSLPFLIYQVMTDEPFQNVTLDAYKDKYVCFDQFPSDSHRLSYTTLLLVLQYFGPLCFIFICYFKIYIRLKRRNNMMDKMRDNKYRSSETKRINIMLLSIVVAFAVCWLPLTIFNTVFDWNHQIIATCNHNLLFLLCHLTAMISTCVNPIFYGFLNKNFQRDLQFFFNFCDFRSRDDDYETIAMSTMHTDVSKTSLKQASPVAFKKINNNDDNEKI

HEK293 [6] = experiment: NOD2 signaling inhibitors in MDP-stimulated cells, cell-based, uHTS, luminescence (AID 2001); type: functional; conditions: Homo sapiens
cells = type: functional
HEK293 [7] = experiment: cells; type: functional, cell-based; conditions: Homo sapiens; remark: listed apart in the source
HEK293 [8] = experiment: cells; type: functional, cell-based; conditions: Homo sapiens; remark: listed apart in the source
[9] = THP-1 cell cytotoxicity, dose response, cytotoxicity control for non-replicating M. tuberculosis project (AID 489025); type: functional
HEK293 [10] = experiment: NOD1 signaling inhibitors, primary screen, cell-based, luminescence, uHTS (AID 1578); type: functional; conditions: Homo sapiens
[11] = HepG2 cell cytotoxicity, dose response, cytotoxicity control for non-replicating M. tuberculosis project (AID 489018); type: functional; conditions: Mycobacterium tuberculosis
[12] = target: T3, Neuropeptide Y receptor type 2 (Homo sapiens, UniProt P49146); experiment: Fluorescence-based cell-based high-throughput dose response assay for agonists of NPY-Y2. [Related pubchem assays: 1703 (Screening assay (CNGC inhibitors).), 1359 (Screening assay (NPY-Y2 potentiators or agonists).), 1304 (Screening assay (NPY-Y1 potentiators or agonists).), 1710 (Screening assay (NPY-Y2 agonists).), 1791 (Summary AID.)]; type: functional
T3 sequence (P49146 whole entry): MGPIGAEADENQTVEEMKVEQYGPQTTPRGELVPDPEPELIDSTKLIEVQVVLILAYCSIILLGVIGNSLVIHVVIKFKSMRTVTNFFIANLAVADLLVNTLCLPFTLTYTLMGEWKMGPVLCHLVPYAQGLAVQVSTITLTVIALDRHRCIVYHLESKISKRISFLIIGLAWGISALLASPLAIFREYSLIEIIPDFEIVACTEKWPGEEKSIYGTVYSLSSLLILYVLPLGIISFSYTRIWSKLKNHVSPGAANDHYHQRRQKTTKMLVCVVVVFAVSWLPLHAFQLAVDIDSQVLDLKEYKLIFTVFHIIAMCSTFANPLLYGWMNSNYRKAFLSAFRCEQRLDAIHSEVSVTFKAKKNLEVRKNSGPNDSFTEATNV

HEK293 [13] = experiment: Fluorescence-based counterscreen for potentiators or agonists of NPY-Y2: cell-based high-throughput dose response assay to identify inhibitors of cyclic nucleotide gated ion channel (CNGC) activity. In this assay, the parental HEK293 cell line transfected with a cyclic-nucleotide gated ion channel (CNGC)-based cAMP sensor is used to measure inhibition of isoproterenol-induced CNGC activity by test compound.; type: functional; conditions: Homo sapiens
HEK293 [14] = experiment: cells; type: functional, cell-based; conditions: Homo sapiens; remark: listed apart in the source
[15] = target: Nuclear receptor subfamily 0 group B member 1 (Homo sapiens, UniProt P51843); experiment: Luminescence-based cell-based high throughput dose response assay for inhibitors of the orphan nuclear receptor subfamily 0, group B, member 1 (DAX1; NR0B1). [Related pubchem assays (depositor defined):AID504766, AID504790]; type: functional
Chain of Nuclear receptor subfamily 0 group B member 1 (P51843 whole entry): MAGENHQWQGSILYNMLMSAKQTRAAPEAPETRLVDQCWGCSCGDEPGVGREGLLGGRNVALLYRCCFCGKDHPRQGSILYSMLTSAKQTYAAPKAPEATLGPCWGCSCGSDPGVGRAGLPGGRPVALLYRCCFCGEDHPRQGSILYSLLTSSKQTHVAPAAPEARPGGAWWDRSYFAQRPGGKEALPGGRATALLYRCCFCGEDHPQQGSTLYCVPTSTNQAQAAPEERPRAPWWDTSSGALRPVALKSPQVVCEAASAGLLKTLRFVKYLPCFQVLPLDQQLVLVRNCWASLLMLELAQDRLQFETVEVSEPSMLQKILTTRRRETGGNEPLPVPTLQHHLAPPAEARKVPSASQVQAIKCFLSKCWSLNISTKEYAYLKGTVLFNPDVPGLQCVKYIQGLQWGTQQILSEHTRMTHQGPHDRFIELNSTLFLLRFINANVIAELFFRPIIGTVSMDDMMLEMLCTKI

Compound: COc1ccc(/C=C2\SC(=O)N(CCCC(=O)Nc3cc(Cl)ccc3C(=O)O)C2=O)cc1
- IC50 (Jurkat): < 0.16 µM (active)
- IC50 [1]: > 80 µM (inactive)
- AC50 [2]: 0.528 µM (active)

Compound: O=C(c1ccc(Cl)cc1)N1CCN(c2ncccc2C(F)(F)F)CC1
- AC50 (Candida albicans): 0.217 µM (active)

Compound: O=C(N/N=C/c1cccc2cccnc12)c1ccccc1O
- EC50 [3]: > 20 µM (inactive)
- CC50 (Vero): 18.8 µM (active)
- IC50 (HEK293 [4]): > 20 µM (inactive)
- EC50 [5]: > 35.4 µM (not active)
- IC50 (HEK293 [6]): 5.04 µM (inactive)
- IC50 (cells): 0.97 µM (active)
- IC50 (HEK293 [7]): 6.52 µM (active)
- IC50 (HEK293 [8]): > 20 µM (inactive)
- CC50 [9]: 11.7 µM (active)
- AC50 [2]: 24.8 µM (active)
- EC50 (HEK293 [10]): > 20 µM (inactive)
- CC50 [11]: > 20 µM (active)
- EC50 [12]: > 35.4 µM (not active)
- EC50 (HEK293 [13]): > 35.4 µM (not active)

Compound: N#C/C(=N/Nc1ccc([N+](=O)[O-])cc1)C(=N)N1CCCCC1
- IC50 (HEK293 [14]): > 67.5 µM (inactive)
- IC50 [15]: > 67.5 µM (inactive)
